Source: patent US4426524A, “Heterocyclic substituted benzyl alcohol, insecticidal ester derivatives, and intermediates” (priority 1982, dated 1984)
Where two headings read alike, the source gives them in different places.

What was measured:
milkweed bug = assay: Topical application, milkweed bug; assay type: in vivo, Oncopeltus fasciatus; conditions: MWB; for Topical % Kill @ 5000 ng/insect: 24 hours
Protocol: (§1) Topical Application: The compounds of this invention were tested for insecticidal activity against various insect species selected from southern armyworm (Spodoptera eridania), Mexican bean beetle, (Epilachna varivestis), milkweed bug (Oncopeltus fasciatus), and cabbage looper (Tricoplusia ni) by applying to the second or third dorsal thoracic segment of each larvae a one microliter droplet containing 5 mg/mL of test compound in acetone (5000 ng/insect). The test was allowed to stand 24 hours after application and was then read to determine the percent kill.
(§2) To determine the LD50 of the compounds, the topical application test was repeated by applying various amounts of toxicant. Also included among the species tested against for this determination were tobacco budworm (Heliothis virescens), beet armyworm (Spodoptera exigua), and boll weevil (Anthonomus grandis).

southern armyworm [1] = assay: Topical application, southern armyworm; assay type: in vivo, Spodoptera eridania; conditions: SAW; for Topical % Kill @ 5000 ng/insect: 24 hours
Protocol: as §1, §2

twospotted spider mite = assay: Foliar application, twospotted spider mite; assay type: in vivo; conditions: Tetranychus urticae, read-out: Foliar % Kill (ppm); for mortality at 16 ppm / mortality at 500 ppm: TSM, foliar, 48 hours
Protocol: (§3) Foliar Application: The activity of some of the compounds of the invention against various test species selected from pea aphid (Acyrthosiphon pisum), twospotted spider mite (Tetranychus urticae), southern armyworm (Spodoptera eridania), Mexican bean beetle (Epilachna varivestis), and cabbage looper (Tricoplusia ni) was determined by foliar application of the test compound. The test materials were formulated as aqueous solutions containing 10% acetone and 0.25% acetylphenoxypolyethoxyethanol. Activity against pea aphid was determined on English fava bean plants the leaves of which were sprayed to runoff with various concentrations of test solution prior to infestation with adult aphids. Activity against twospotted spider mite was evaluated on pinto bean plants whose leaves were sprayed to runoff with various concentrations of test solution after infestation with adult mites. Activity against the remaining species was evaluated on pinto bean plants whose leaves were sprayed to runoff with various concentrations of test solution before infestation with the appropriate immature insects. Mortality was read approximately 48 hours after treatment.

tobacco budworm = assay: Topical application, tobacco budworm; assay type: in vivo, Heliothis virescens; conditions: TBW
Protocol: as §1, §2

pea aphid = assay: Foliar application, pea aphid; assay type: in vivo; conditions: Acyrthosiphon pisum, read-out: Foliar % Kill (ppm)
Protocol: as §3

Mexican bean beetle [2] = assay: Foliar application, Mexican bean beetle; assay type: in vivo; conditions: Epilachna varivestis, read-out: Foliar % Kill (ppm)
Protocol: as §3

Mexican bean beetle [3] = assay: Topical application, Mexican bean beetle; assay type: in vivo, Epilachna varivestis; conditions: MBB; for Topical % Kill @ 5000 ng/insect: 24 hours
Protocol: as §1, §2

southern armyworm [4] = assay: Foliar application, southern armyworm; assay type: in vivo; conditions: Spodoptera eridania, read-out: Foliar % Kill (ppm)
Protocol: as §3

cabbage looper = assay: Topical application, cabbage looper; assay type: in vivo, Tricoplusia ni; conditions: CL
Protocol: as §1, §2

SMILES	Topical LD50 (milkweed bug) [ng/insect]	Topical % Kill @ 5000 ng/insect (milkweed bug) [%]	Topical LD50 (southern armyworm [1]) [ng/insect]	Topical % Kill @ 5000 ng/insect (southern armyworm [1]) [%]	mortality at 16 ppm (twospotted spider mite) [%]	Topical LD50 (tobacco budworm) [ng/insect]	mortality at 500 ppm (pea aphid; PA, foliar, 48 hours) [%]	mortality at 64 ppm (Mexican bean beetle [2]; MBB, foliar, 48 hours) [%]	Topical LD50 (Mexican bean beetle [3]) [ng/insect]	Topical % Kill @ 5000 ng/insect (Mexican bean beetle [3]) [%]	mortality at 500 ppm (southern armyworm [4]; SAW, foliar, 48 hours) [%]	Topical LD50 (cabbage looper) [ng/insect]	mortality at 500 ppm (twospotted spider mite) [%]	mortality at 512 ppm (Mexican bean beetle [2]; MBB, foliar, 512 ppm, 48 hours) [%]	mortality at 512 ppm (southern armyworm [4]; SAW, foliar, 512 ppm, 48 hours) [%]	mortality at 64 ppm (twospotted spider mite; 48 h) [%]	mortality at 512 ppm (pea aphid; 48 h) [%]	mortality at 512 ppm (Mexican bean beetle [2]; 48 h) [%]	mortality at 512 ppm (southern armyworm [4]; 48 h) [%]	mortality at 64 ppm (pea aphid; PA, foliar, 64 ppm, 48 hours) [%]
Cc1c(COC(=O)C2C(C=C(Cl)Cl)C2(C)C)cccc1-c1ccco1 (mixture of isomers) [o, [3-(2-furanyl)-2-methylphenyl]methyl cis,trans-3-(2,2-dichloroethenyl)-2,2-dimethylcyclopropanecarboxylate]	450	100	146	100	0	45	100	45	86	100	100	536	–	–	–	–	–	–	–	–
CC1(C)[C@H](C=C(Cl)Cl)[C@@H]1C(=O)OCc1cccc(-c2ccco2)c1 (relative stereo) [j, [3-(2-furanyl)phenyl]methyl cis-3-(2,2-dichloroethenyl)-2,2-dimethylcyclopropanecarboxylate]	–	0	377	100	–	–	40	–	–	30	–	–	0	50	100	–	–	–	–	–
Cc1c(COC(=O)[C@H]2[C@@H](C=C(Cl)C(F)(F)F)C2(C)C)cccc1-c1cccnc1 (relative stereo) [r, [2-methyl-3-(pyridin-3-yl)phenyl]methyl cis-3-(2-chloro-3,3,3-trifluoro-1-propenyl)-2,2-dimethylcyclopropanecarboxylate]	1047	100	2626	100	0	–	95	25	863	–	100	–	–	–	–	–	–	–	–	–
Cc1c(COC(=O)[C@H]2[C@@H](C=C(Cl)C(F)(F)F)C2(C)C)cccc1-c1cnccn1 (relative stereo) [p, [2-methyl-3-(pyrazinyl)phenyl]methyl cis-3-(2-chloro-3,3,3-trifluoro-1-propenyl)-2,2-dimethylcyclopropanecarboxylate]	1050	100	1948	90	–	–	100	80	93	100	100	–	100	–	–	–	–	–	–	–
CC1(C)[C@H](C(=O)OCc2cccc(-c3ccc(Br)o3)c2)[C@@H]1C=C(Cl)Cl (relative stereo) [l, [3-(5-bromofuranyl)phenyl]methyl cis-3-(2,2-dichloroethenyl)-2,2-dimethylcyclopropanecarboxylate]	–	0	1819	100	–	–	–	–	–	35	–	–	–	–	–	0	75	80	100	–
Cc1c(COC(=O)[C@H]2[C@@H](C=C(Cl)Cl)C2(C)C)cccc1-c1ccco1 (relative stereo) [n, [3-(2-furanyl)-2-methylphenyl]methyl cis-3-(2,2-dichloroethenyl)-2,2-dimethylcyclopropanecarboxylate]	1140	100	73	–	0	92	–	40	72	100	100	341	–	–	–	–	–	–	–	100
